# Test results from patent publication US11161825B2, “4-oxo-2,3,4,5-tetrahydro-1H-1,5-benzodiazepine-7-carboxamides” (Bayer Aktiengesellschaft, priority 2017, dated 2021).
# Assays:
# SMYD3 = biological target: T1, SMYD3 (Homo sapiens, UniProt Q9H7B4); assay: SMYD3 Scintillation Proximity Assay (SPA), methylation of MAP3K2 Peptide; type: biochemical; details: SMYD3 full length enzyme 10 nM, 3H-SAM 125 nM, MAP3K2 Peptide 1 μM, 120 min at 22° C.
# T1 construct: The SMYD3 full length enzyme was produced in-house by expression (with an N-terminal 6×His tag) in E. coli; 6xHis (N); made in house; host or cells: E. coli
# T1 sequence (Q9H7B4 1-428): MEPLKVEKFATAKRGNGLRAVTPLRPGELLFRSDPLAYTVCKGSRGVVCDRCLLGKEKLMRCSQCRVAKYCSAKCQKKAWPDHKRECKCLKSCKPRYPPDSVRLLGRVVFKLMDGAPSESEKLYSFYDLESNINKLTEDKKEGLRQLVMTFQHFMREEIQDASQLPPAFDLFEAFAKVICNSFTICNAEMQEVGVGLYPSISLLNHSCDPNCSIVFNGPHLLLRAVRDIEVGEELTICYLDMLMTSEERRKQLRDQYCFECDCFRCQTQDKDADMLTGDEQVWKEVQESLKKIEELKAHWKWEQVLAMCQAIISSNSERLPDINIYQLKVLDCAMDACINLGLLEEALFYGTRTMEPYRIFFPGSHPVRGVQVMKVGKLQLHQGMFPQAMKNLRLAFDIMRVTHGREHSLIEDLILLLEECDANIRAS
# Experimental: SMYD3 Scintillation Proximity Assay (SPA)
# The SMYD3 full length enzyme was produced in-house by expression (with an N-terminal 6×His tag) in E. coli and purification by affinity chromatography on a Ni-NTA Sepharose column followed by a size exclusion chromatography step on a Superdex 200 16/60 column (GE Healthcare).
# To this end, 100-fold concentrated compound solutions (in DMSO) were previously prepared by serial dilution (1:3.4) of 2 mM stocks in a clear low volume 384-well source microtiter plate (Greiner Bio-One), from which 100 nl of compounds were transferred into a white low volume test microtiter plate from the same supplier. […] The resulting mixture (5 μl final volume) was shortly centrifuged (2 min., 1500 rpm) and incubated at 22° C. during 120 min. […] Plates containing the stopped reaction were sealed with transparent adhesive foil (Perkin Elmer), centrifuged (2 min., 1500 rpm), and further incubated overnight at 4° C. in order to allow the SPA signals to develop. Subsequently, the amount of product was evaluated by measuring the energy transfer from the […] emitted by the 3H-labeled substrate to the scintillator co-polymerized in the bead's matrix, using a TopCount NXT scintillation counter (Packard) with the standard instrument settings for this purpose. The resulting scintillation counts were taken as indicator for the amount of methylated peptide per well. […] IC50 values were calculated by fitting the normalized inhibition data to a 4-parameter logistic equation using the XLFit analysis software (IDBS).
# [1] = biological target: T2, untagged full length SMYD3 (Homo sapiens, UniProt Q9H7B4); assay: Thermal Shift Assay; type: binding; details: protein 1.5-2.0 μM, 5× SYPRO Orange, scans 25° C. to 80° C.; control 4% DMSO
# T2 construct: As protein untagged full length SMYD3 was used
# T2 sequence (Q9H7B4 1-428): T1 sequence (Q9H7B4 1-428)
# Experimental: Thermal Shift Assay Thermal melting experiments were performed with a ViiA™ Real-Time PCR machine (Thermo Fisher Scientific) in 384-well microliter plate with a final volume of 5 μL. Melting curves were obtained at a protein concentration of 1.5-2.0 μM and 5× SYPRO Orange (Invitrogen) using buffer containing 20 mM Tris pH7.0; 150 mM NaCl; 1.0 mM DTT. As protein untagged full length SMYD3 was used. […] As control 4% DMSO was used. Scans were measured from 25° C. to 80° C. at a scanning rate of 0.1° C./sec. All TSA data were analyzed by using Genedata Assay Analyzer.
SMILES,IC50 (SMYD3) [nM],Thermal shift assay (° C.) [1] [°C]
"C[C@H]1CC(=O)Nc2cc(C(=O)NCCC3CC3)ccc2N1C(=O)N1CCC(F)(F)C1 [Example 24, (2S)—N-(2-cyclopropylethyl)-1-[(3,3-difluoropyrrolidin-1-yl)carbonyl]-2-methyl-4-oxo-2,3,4,5-tetrahydro-1H-1,5-benzodiazepine-7-carboxamide]",706,7.35
"C[C@H]1CC(=O)Nc2cc(C(=O)NCCC3CC3)ccc2N1C(=O)N1CCC(F)(F)CC1 [Example 25, (2S)—N-(2-cyclopropylethyl)-1-[(4,4-difluoropiperidin-1-yl)carbonyl]-2-methyl-4-oxo-2,3,4,5-tetrahydro-1H-1,5-benzodiazepine-7-carboxamide]",2300,6.12
"C[C@H]1CC(=O)Nc2cc(C(=O)NCCC3CC3)ccc2N1C(=O)N1CCN(CCO)CC1 [Example 26, (2S)—N-(2-cyclopropylethyl)-1-{[4-(2-hydroxyethyl)piperazin-1-yl]carbonyl}-2-methyl-4-oxo-2,3,4,5-tetrahydro-1H-1,5-benzodiazepine-7-carboxamide]",1260,6.08
"CCN1CCN(C(=O)N2c3ccc(C(=O)NCCC4CC4)cc3NC(=O)C[C@@H]2C)CC1 [Example 27, (2S)—N-(2-cyclopropylethyl)-1-[(4-ethylpiperazin-1-yl)carbonyl]-2-methyl-4-oxo-2,3,4,5-tetrahydro-1H-1,5-benzodiazepine-7-carboxamide]",520,8.77
"CCN1CCC(N(C)C(=O)N2c3ccc(C(=O)NCCC4CC4)cc3NC(=O)C[C@@H]2C)CC1 [Example 28, (2S)—N^7-(2-cyclopropylethyl)-N^1-(1-ethylpiperidin-4-yl)-N^1,2-dimethyl-4-oxo-2,3,4,5-tetrahydro-1H-1,5-benzodiazepine-1,7-dicarboxamide]",130,9.94
"C[C@H]1CC(=O)Nc2cc(C(=O)NCCC3CC3)ccc2N1C(=O)N1CCC(NCC(F)(F)F)CC1 [Example 29, (2S)—N-(2-cyclopropylethyl)-2-methyl-4-oxo-1-({4-[(2,2,2-trifluoroethyl)amino]piperidin-1-yl}carbonyl)-2,3,4,5-tetrahydro-1H-1,5-benzodiazepine-7-carboxamide]",679,5.51
"C[C@H]1CC(=O)Nc2cc(C(=O)NCCC3CC3)ccc2N1C(=O)N1CCN(CC(F)(F)F)CC1 [Example 30, (2S)—N-(2-cyclopropylethyl)-2-methyl-4-oxo-1-{[4-(2,2,2-trifluoroethyl)piperazin-1-yl]carbonyl}-2,3,4,5-tetrahydro-1H-1,5-benzodiazepine-7-carboxamide]",787,5.69
"C[C@H]1CC(=O)Nc2cc(C(=O)NCCC3CC3)ccc2N1C(=O)N(C)C1CCN(CC(F)(F)F)CC1 [Example 31, (2S)—N^7-(2-cyclopropylethyl)-N^1,2-dimethyl-4-oxo-N^1-[1-(2,2,2-trifluoroethyl)piperidin-4-yl]-2,3,4,5-tetrahydro-1H-1,5-benzodiazepine-1,7-dicarboxamide]",2520,2.79
"C[C@H]1CC(=O)Nc2cc(C(=O)NCCC3CC3)ccc2N1C(=O)N1CCNCC1 [Example 41, (2S)—N-(2-cyclopropylethyl)-2-methyl-4-oxo-1-(piperazin-1-ylcarbonyl)-2,3,4,5-tetrahydro-1H-1,5-benzodiazepine-7-carboxamide]",265,7.22

# Second part, the compound after the results:
IC50 (SMYD3) [nM],Thermal shift assay (° C.) [1] [°C],SMILES
4620,3.71,"Cc1nocc1C(=O)N1c2ccc(C(=O)NCCC3CCC3)cc2NC(=O)C(C)C1C (single isomer, unassigned) [Example 13, N-(2-cyclobutylethyl)-2,3-dimethyl-1-[(3-methyl-1,2-oxazol-4-yl)carbonyl]-4-oxo-2,3,4,5-tetrahydro-1H-1,5-benzodiazepine-7-carboxamide]"
> 20000,1.15,"Cc1nocc1C(=O)N1c2ccc(C(=O)NCCC3CCC3)cc2NC(=O)C(C)C1C (single isomer, unassigned) [Example 14, N-(2-cyclobutylethyl)-2,3-dimethyl-1-[(3-methyl-1,2-oxazol-4-yl)carbonyl]-4-oxo-2,3,4,5-tetrahydro-1H-1,5-benzodiazepine-7-carboxamide]"
≥ 20000,1.27,"Cc1nocc1C(=O)N1c2ccc(C(=O)NCCC3CCC3)cc2NC(=O)C(C)C1C (single isomer, unassigned) [Example 15, N-(2-cyclobutylethyl)-2,3-dimethyl-1-[(3-methyl-1,2-oxazol-4-yl)carbonyl]-4-oxo-2,3,4,5-tetrahydro-1H-1,5-benzodiazepine-7-carboxamide]"
3380,3.51,"Cc1nocc1C(=O)N1c2ccc(C(=O)NCCC3CCC3)cc2NC(=O)C(C)C1C (single isomer, unassigned) [Example 16, N-(2-cyclobutylethyl)-2,3-dimethyl-1-[(3-methyl-1,2-oxazol-4-yl)carbonyl]-4-oxo-2,3,4,5-tetrahydro-1H-1,5-benzodiazepine-7-carboxamide]"
54.2,9.35,"CC1C(=O)Nc2cc(C(=O)NCCC3CCC3)ccc2N(C(=O)N2CCC(N)CC2)C1C (single isomer, unassigned) [Example 21, 1-[(4-aminopiperidin-1-yl)carbonyl]-N-(2-cyclobutylethyl)-2,3-dimethyl-4-oxo-2,3,4,5-tetrahydro-1H-1,5-benzodiazepine-7-carboxamide]"
22.3,9.50,"CC1C(=O)Nc2cc(C(=O)NCCC3CCC3)ccc2N(C(=O)N2CCC(N)CC2)C1C (single isomer, unassigned) [Example 22, 1-[(4-aminopiperidin-1-yl)carbonyl]-N-(2-cyclobutylethyl)-2,3-dimethyl-4-oxo-2,3,4,5-tetrahydro-1H-1,5-benzodiazepine-7-carboxamide]"
58.9,9.88,"C[C@H]1CC(=O)Nc2cc(C(=O)NCCC3CC3)ccc2N1C(=O)N1CC2CC2C1 (stereo partly drawn) [Example 23, (2S)-1-(3-azabicyclo[3.1.0]hex-3-ylcarbonyl)-N-(2-cyclopropylethyl)-2-methyl-4-oxo-2,3,4,5-tetrahydro-1H-1,5-benzodiazepine-7-carboxamide]"
46,10.17,"C[C@H]1CC(=O)Nc2cc(C(=O)NCCC3CC3)ccc2N1C(=O)N1CCCNCC1 [Example 33, (2S)—N-(2-cyclopropylethyl)-1-(1,4-diazepan-1-ylcarbonyl)-2-methyl-4-oxo-2,3,4,5-tetrahydro-1H-1,5-benzodiazepine-7-carboxamide]"
215,8.66,"C[C@H]1CC(=O)Nc2cc(C(=O)NCCC3CC3)ccc2N1C(=O)N1CC[C@H](N)C1.Cl [Example 37, (2S)-1-{[(3S)-3-aminopyrrolidin-1-yl]carbonyl}-N-(2-cyclopropylethyl)-2-methyl-4-oxo-2,3,4,5-tetrahydro-1H-1,5-benzodiazepine-7-carboxamide hydrochloride (1:1)]"
584,7.25,"C[C@H]1CC(=O)Nc2cc(C(=O)NCCC3CC3)ccc2N1C(=O)N1CC[C@@H](N)C1.Cl [Example 39, (2S)-1-{[(3R)-3-aminopyrrolidin-1-yl]carbonyl}-N-(2-cyclopropylethyl)-2-methyl-4-oxo-2,3,4,5-tetrahydro-1H-1,5-benzodiazepine-7-carboxamide hydrochloride (1:1)]"
